# From patent publication US20210371351A1, “MIXTURES COMPRISING AT LEAST TWO DIFFERENT NITRIFICATION INHIBITORS SELECTED FROM 2-(3,4-DIMETHYL-1H-PYRAZOL-1-YL)SUCCINIC ACID (DMPSA), 3,4-DIMETHYL PYRAZOLIUM GLYCOLATE (DMPG) AND OTHER COMPOUNDS” (BASF SE, priority 2017, published 2021)
# Legend:
# [1] = test system: nitrification; assay: Example 3: soil column trial (soil Limburgerhof) with ammonium sulfate, DMPP, DMPSA or DMPP+DMPSA; leaching at 5° C., incubation 10 d or 20 d at 15° C.; NH4-N/NO3-N, % inhibition of NO3-N formation (Böhland), Colby; details: 0.05% DMPP, 0.45% DMPSA
# Excerpt: The effect on NH4^+ retention and NH4^+ to NO3^− ratios in the soil after fertilization of ammonium sulfate with the addition of DMPP, DMPSA or a combination of DMPP and DMPSA was investigated in column trials simulating climatic conditions of spring time in central Europe. Soil Limburgerhof (pH(CaCl2) 6.8, texture: 73% sand; 24% silt, 3% clay) was filled dry into a glass column with an inner width of 4 cm. At the bottom 0.4 g cotton wool was placed above which a frit (Co. Robu, pore size 1) was placed above which 100 g of 2 mm sieved soil Limburgerhof was layered. The soil height in the column was about 7 cm. Before fertilization the soil was brought to about 60% of its water holding capacity (WHC) be adding 14.4 mL of deionized water. Per column 10 mg NH4—N as ammonium sulfate was fertilized or not (control) together or not with 0.05% DMPP (DMPP obtained from BASF SE), 0.45% DMPSA (DMPSA used as free acid obtained from BASF SE) and 0.05% DMPP plus 0.45% DMPSA (% of nitrification inhibitor w/w of NH4—N). Every treatment was replicated three times.
# After fertilization, 50 mL demineralized water was carefully and slowly placed on top of each column which equals about 31 mm precipitation. After 24 h the eluate was collected and by sucking off the soil to bring it back to about 60% of its WHC. All handlings including soil preparation, fertilization and the temperature of the water for both wetting the soil and the artificial precipitation up to the collection of the eluate 24 h after fertilization was performed at 5° C.
# Thereafter, the columns were incubated for 10 d or 20 d at constantly 15° C. in an incubator. After 7 d and 14 d, water was added by weight where needed to bring the soils uniformly to 60% WHC. After 10 d or 20 d, the soil was removed from the columns and extracted with 1% (w/w) K2SO4 solution by shaking for 2 h at room temperature. The filtrated extract was then analyzed for NH4^+ and NO3 colorimetrical by an autoanalyzer.
# To calculate the inhibition of nitrate formation by the nitrification inhibitors during the incubation, the above-mentioned Böhland equation was used. To examine synergistic effects of the combination of DMPP+DMPSA the formula by Colby (Colby, S.R., “Calculating synergistic and antagonistic responses of herbicide Combinations”, Weeds, 15, pp. 20-22, 1967) was used. To determine background levels of NH4+ to NO3−, every treatment was also extracted immediately after fertilization and after leaching prior to the further incubation at 15° C. for 10 d or 20 d.
# [2] = test system: nitrification; assay: Example 5: soil incubation in bottles with ammonium sulfate, DMPSA, DCD or mixtures, 5 to 15° C., 0 up to 56 days; recovery NH4 (RE/RC), net recovery NH4 (NE/NC), inhibition of NO3 formation (IE/IC, Böhland; Colby); design: unit not given here
# Procedure: 100 g soil is filled into 500 ml plastic bottles (e.g. soil sampled from the field) and is moistened to 50% water holding capacity. The soil is incubated at 20° C. for two weeks to activate the microbial biomass. 1 ml test solution, containing the compositions and mixtures of the invention in the appropriate concentration, or DMSO and 5 to 10 mg nitrogen in the form of ammoniumsulfate-N is added to the soil and everything mixed well. Bottles are capped but loosely to allow air exchange. The bottles are then incubated at 5 to 15° C. for 0 up to 56 days.
# For analysis, 300 ml of a 1% K2SO4-solution is added to the bottle containing the soil and shaken for 2 hrs in a horizontal shaker at 150 rpm. Then the whole solution is filtered through a Macherey-Nagel Filter MN 807′/. Ammonium and nitrate content is then analyzed in the filtrate in an autoanalyzer at 550 nm (Merck, AA11).
# The Böhland equation is described in Böhland, H., et al. (1973) “Mittel zur Hemmung bzw. Regelung der Nitrifikation von Ammoniumstickstoff in Kulturböden”. DDR-Wirtschaftspatent (Economic patent of the German Democratic Republic) C 05c 169 727. Cited by: Peschke, H. (1985) “Zur Bewertung der inhibierenden Wirkung von Nitrifiziden im Boden”, Zbl. Mikrobiol. 140, pp. 583-588.
# [3] = 10 days of incubation at 15° C.
# [4] = 20 days of incubation at 15° C.
substance,measurement,setting,value
"2-(3,4-dimethyl-1H-pyrazol-1-yl)succinic acid and/or 2-(4,5-dimethyl-1H-pyrazol-1-yl)succinic acid [DMPSA]",During incubation: % inhibition of NO3—N formation by NI acc. to Böhland equation (1973) (MV),[1]; [3],14.2%
same,Net NI effect % NH4 from fertilized NH4 (MV),[1]; [3],6.88%
same,Ratio NH4—N/NO3—N (MV),[1]; [3],0.53
same,Soil mg/100 g NH4—N (MV),[1]; [3],3.16 mg/100 g
same,Soil mg/100 g NO3—N (MV),[1]; [3],6.30 mg/100 g
same,During incubation: % inhibition of NO3—N formation by NI acc. to Böhland equation (1973) (MV),[1]; [4],4.8%
same,Net NI effect % NH4 from fertilized NH4 (MV),[1]; [4],1.79%
same,Ratio NH4—N/NO3—N (MV),[1]; [4],0.02
same,Soil mg/100 g NH4—N (MV),[1]; [4],0.19 mg/100 g
same,Soil mg/100 g NO3—N (MV),[1]; [4],9.60 mg/100 g
same,IE inhibition of NO3 formation,"[2]; IT5° C., DAT10, % a.i.: DMPSA 0.5, DCD 1, DMPSA + DCD 0.5 + 1 (1:2)",18
same,IE inhibition of NO3 formation,"[2]; IT5° C., DAT10, % a.i.: DMPSA 0.5, DCD 3, DMPSA + DCD 0.5 + 3 (1:6)",18
same,IE inhibition of NO3 formation,"[2]; IT5° C., DAT20, % a.i.: DMPSA 0.5, DCD 1, DMPSA + DCD 0.5 + 1 (1:2)",20
same,IE inhibition of NO3 formation,"[2]; IT5° C., DAT20, % a.i.: DMPSA 0.5, DCD 3, DMPSA + DCD 0.5 + 3 (1:6)",20
same,"IE (inhibition of NO3 formation, Böhland)","[2]; IT5° C., DAT28, % a.i. DMPSA 0.25, DCD 1",77
same,"IE (inhibition of NO3 formation, Böhland)","[2]; IT5° C., DAT28, % a.i. DMPSA 0.25, DCD 3",77
same,"IE (inhibition of NO3 formation, Böhland)","[2]; IT5° C., DAT28, % a.i. DMPSA 0.30, DCD 0.05",42
same,"IE (inhibition of NO3 formation, Böhland)","[2]; IT5° C., DAT28, % a.i. DMPSA 0.50, DCD 0.08",41
same,IE inhibition of NO3 formation,"[2]; IT5° C., DAT28, % a.i.: DMPSA 0.50, DCD 0.0125, DMPSA + DCD 0.50 + 0.0125 (40:1)",44
same,IE inhibition of NO3 formation,"[2]; IT5° C., DAT28, % a.i.: DMPSA 0.50, DCD 0.0143, DMPSA + DCD 0.50 + 0.0143 (35:1)",44
same,IE inhibition of NO3 formation,"[2]; IT5° C., DAT28, % a.i.: DMPSA 0.50, DCD 0.0167, DMPSA + DCD 0.50 + 0.0167 (30:1)",44
same,IE inhibition of NO3 formation,"[2]; IT5° C., DAT30, % a.i.: DMPSA 0.5, DCD 1, DMPSA + DCD 0.5 + 1 (1:2)",66
same,IE inhibition of NO3 formation,"[2]; IT5° C., DAT30, % a.i.: DMPSA 0.5, DCD 3, DMPSA + DCD 0.5 + 3 (1:6)",66
same,"IE (inhibition of NO3 formation, Böhland)","[2]; IT5° C., DAT42, % a.i. DMPSA 0.25, DCD 1",75
same,"IE (inhibition of NO3 formation, Böhland)","[2]; IT5° C., DAT42, % a.i. DMPSA 0.25, DCD 3",75
same,"IE (inhibition of NO3 formation, Böhland)","[2]; IT5° C., DAT42, % a.i. DMPSA 0.30, DCD 0.05",55
same,"IE (inhibition of NO3 formation, Böhland)","[2]; IT5° C., DAT42, % a.i. DMPSA 0.50, DCD 0.08",53
same,"IE (inhibition of NO3 formation, Böhland)","[2]; IT5° C., DAT56, % a.i. DMPSA 0.25, DCD 1",83
same,"IE (inhibition of NO3 formation, Böhland)","[2]; IT5° C., DAT56, % a.i. DMPSA 0.25, DCD 3",83
same,"IE (inhibition of NO3 formation, Böhland)","[2]; IT5° C., DAT56, % a.i. DMPSA 0.30, DCD 0.05",63
same,IE inhibition of NO3 formation,"[2]; IT10° C., DAT10, % a.i.: DMPSA 0.5, DCD 1, DMPSA + DCD 0.5 + 1 (1:2)",70
same,IE inhibition of NO3 formation,"[2]; IT10° C., DAT10, % a.i.: DMPSA 0.5, DCD 3, DMPSA + DCD 0.5 + 3 (1:6)",70
same,IE inhibition of NO3 formation,"[2]; IT10° C., DAT20, % a.i.: DMPSA 0.5, DCD 1, DMPSA + DCD 0.5 + 1 (1:2)",7
same,IE inhibition of NO3 formation,"[2]; IT10° C., DAT20, % a.i.: DMPSA 0.5, DCD 3, DMPSA + DCD 0.5 + 3 (1:6)",7
same,"IE (inhibition of NO3 formation, Böhland)","[2]; IT10° C., DAT28, % a.i. DMPSA 0.25, DCD 1",59
same,"IE (inhibition of NO3 formation, Böhland)","[2]; IT10° C., DAT28, % a.i. DMPSA 0.25, DCD 3",59
